Laboratory results published in patent publication US20220340597A1, “HEXAHYDRO-1H-PYRAZINO[1,2-A]PYRAZINE COMPOUNDS FOR THE TREATMENT OF AUTOIMMUNE DISEASE” (Hoffmann-La Roche Inc., priority 2019, published 2022).

Experiments:
human TLR8 = target: T1, human TLR8 (Homo sapiens, UniProt Q9NR97); assay: HEK293-Blue-hTLR-8 cells assay
T1 sequence (Q9NR97 27-1041): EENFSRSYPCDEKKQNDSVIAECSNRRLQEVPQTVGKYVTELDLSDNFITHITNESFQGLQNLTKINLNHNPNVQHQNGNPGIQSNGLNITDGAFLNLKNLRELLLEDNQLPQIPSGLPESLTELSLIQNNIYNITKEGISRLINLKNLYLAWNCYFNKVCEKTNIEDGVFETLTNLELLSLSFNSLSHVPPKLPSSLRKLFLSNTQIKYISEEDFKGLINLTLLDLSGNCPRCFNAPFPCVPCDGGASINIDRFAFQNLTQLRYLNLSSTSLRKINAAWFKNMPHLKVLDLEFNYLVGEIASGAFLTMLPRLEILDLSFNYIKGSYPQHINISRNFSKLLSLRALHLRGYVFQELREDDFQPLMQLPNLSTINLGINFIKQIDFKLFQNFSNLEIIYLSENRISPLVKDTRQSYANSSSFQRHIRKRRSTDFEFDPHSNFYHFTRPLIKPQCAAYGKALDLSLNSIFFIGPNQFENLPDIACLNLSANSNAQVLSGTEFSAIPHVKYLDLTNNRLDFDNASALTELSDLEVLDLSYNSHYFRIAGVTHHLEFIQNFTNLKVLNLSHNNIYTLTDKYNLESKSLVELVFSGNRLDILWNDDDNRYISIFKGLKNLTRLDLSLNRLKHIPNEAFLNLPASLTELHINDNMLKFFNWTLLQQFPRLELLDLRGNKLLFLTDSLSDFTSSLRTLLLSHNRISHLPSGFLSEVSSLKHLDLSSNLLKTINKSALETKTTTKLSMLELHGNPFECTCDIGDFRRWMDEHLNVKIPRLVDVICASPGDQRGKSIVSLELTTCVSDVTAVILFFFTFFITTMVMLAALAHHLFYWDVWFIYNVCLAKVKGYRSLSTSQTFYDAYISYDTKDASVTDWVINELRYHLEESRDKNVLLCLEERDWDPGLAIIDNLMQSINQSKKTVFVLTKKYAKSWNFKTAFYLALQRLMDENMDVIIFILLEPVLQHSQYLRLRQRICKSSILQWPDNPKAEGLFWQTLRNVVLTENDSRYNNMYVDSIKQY

human TLR7 = target: T2, human TLR7 (Homo sapiens, UniProt Q9NYK1); assay: HEK293-Blue-hTLR-7 cells assay; type: cell-based; details: HEK293-Blue-hTLR7 cells, R848 stimulation, 20 hrs, SEAP reporter; read-out: HEK/hTLR7 IC50
T2 construct: host or cells: HEK293 (HEK-Blue hTLR7)
T2 sequence (Q9NYK1 27-1049): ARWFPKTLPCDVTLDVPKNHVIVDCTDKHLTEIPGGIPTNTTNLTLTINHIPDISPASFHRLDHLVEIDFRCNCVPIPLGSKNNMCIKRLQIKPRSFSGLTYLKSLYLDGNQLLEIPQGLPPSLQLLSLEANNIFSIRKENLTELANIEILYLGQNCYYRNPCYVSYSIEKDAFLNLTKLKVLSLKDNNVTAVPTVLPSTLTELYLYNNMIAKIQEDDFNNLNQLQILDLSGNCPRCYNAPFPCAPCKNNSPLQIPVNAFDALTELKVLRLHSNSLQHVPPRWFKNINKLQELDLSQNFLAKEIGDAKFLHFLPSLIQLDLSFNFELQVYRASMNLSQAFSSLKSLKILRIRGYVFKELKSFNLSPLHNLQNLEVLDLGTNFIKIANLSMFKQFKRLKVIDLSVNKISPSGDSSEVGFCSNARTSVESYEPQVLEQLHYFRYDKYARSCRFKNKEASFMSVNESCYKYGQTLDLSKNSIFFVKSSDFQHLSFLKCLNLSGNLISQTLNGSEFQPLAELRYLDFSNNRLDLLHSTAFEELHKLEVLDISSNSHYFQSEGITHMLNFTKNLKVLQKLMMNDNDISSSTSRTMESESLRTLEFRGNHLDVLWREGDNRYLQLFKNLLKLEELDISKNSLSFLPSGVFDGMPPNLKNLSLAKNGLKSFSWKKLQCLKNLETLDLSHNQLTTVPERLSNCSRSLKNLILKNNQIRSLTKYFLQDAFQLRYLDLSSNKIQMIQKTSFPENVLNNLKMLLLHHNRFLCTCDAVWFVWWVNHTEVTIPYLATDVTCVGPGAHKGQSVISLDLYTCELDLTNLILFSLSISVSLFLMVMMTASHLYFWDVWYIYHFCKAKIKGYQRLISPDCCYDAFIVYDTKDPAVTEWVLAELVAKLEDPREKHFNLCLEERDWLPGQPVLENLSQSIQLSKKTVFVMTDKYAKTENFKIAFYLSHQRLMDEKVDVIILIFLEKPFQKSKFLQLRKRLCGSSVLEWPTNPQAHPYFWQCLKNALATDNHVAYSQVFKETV

Row | IC50 (human TLR8) | IC50 (human TLR7) | SMILES
1 | 24 nM | 21 nM | [2H]c1ccc2c(N3C[C@@H]4CN(CCc5ccc(N6C[C@H]7NCCO[C@@H]7C6)nc5)CCN4[C@H](C)C3)ccc(C#N)c2n1 [Example 77, 5-[(4R,9aS)-8-[2-[6-[(4aR,7aR)-3,4,4a,5,7,7a-hexahydro-2H-pyrrolo[3,4-b][1,4]oxazin-6-yl]-3-pyridyl]ethyl]-4-methyl-3,4,6,7,9,9a-hexahydro-1H-pyrazino[1,2-a]pyrazin-2-yl]-2-deuterio-quinoline-8-carbonitrile]
2 | 17 nM | 35 nM | [2H]c1ccc2c(N3C[C@@H]4CN(Cc5ccc(N6CCNCC6)nc5)CCN4[C@H](C)C3)ccc(C#N)c2n1 [Example 78, 5-[(4R,9aS)-4-methyl-8-[(6-piperazin-1-yl-3-pyridyl)methyl]-3,4,6,7,9,9a-hexahydro-1H-pyrazino[1,2-a]pyrazin-2-yl]-2-deuterio-quinoline-8-carbonitrile]
3 | 6 nM | 19 nM | [2H]c1ccc2c(N3C[C@@H]4CN(Cc5ccc(N6CC(C)(N)C6)nc5C)CCN4[C@H](C)C3)ccc(C#N)c2n1 [Example 79, 5-[(4R,9aS)-8-[[6-(3-amino-3-methyl-azetidin-1-yl)-2-methyl-3-pyridyl]methyl]-4-methyl-3,4,6,7,9,9a-hexahydro-1H-pyrazino[1,2-a]pyrazin-2-yl]-2-deuterio-quinoline-8-carbonitrile]
4 | 2 nM | 4 nM | [2H]c1ccc2c(N3C[C@@H]4CN(c5ncc(C(=O)N6CC7(CN(C)C7)C6)cc5C)CCN4[C@H](C)C3)ccc(C#N)c2n1 [Example 102, 5-[(4R,9aR)-4-methyl-8-[3-methyl-5-(6-methyl-2,6-diazaspiro[3.3]heptane-2-carbonyl)-2-pyridyl]-3,4,6,7,9,9a-hexahydro-1H-pyrazino[1,2-a]pyrazin-2-yl]-2-deuterio-quinoline-8-carbonitrile]
5 | 4 nM | 6 nM | [2H]c1ccc2c(N3C[C@@H]4CN(c5ncc(C(=O)N6CC7(CN(C)C7)C6)cc5C)CCN4[C@@H](C)C3)ccc(C#N)c2n1 [Example 103, 5-[(4S,9aR)-4-methyl-8-[3-methyl-5-(6-methyl-2,6-diazaspiro[3.3]heptane-2-carbonyl)-2-pyridyl]-3,4,6,7,9,9a-hexahydro-1H-pyrazino[1,2-a]pyrazin-2-yl]-2-deuterio-quinoline-8-carbonitrile]
6 | 7 nM | 26 nM | C[C@@H]1CN(c2ccc(C#N)c3ncccc23)C[C@@H]2CN(c3ccnc(N4CC[C@@](C)(N)C4)c3)CCN21 [Example 105, 5-[(4R,9aS)-8-[2-[(3R)-3-amino-3-methyl-pyrrolidin-1-yl]-4-pyridyl]-4-methyl-3,4,6,7,9,9a-hexahydro-1H-pyrazino[1,2-a]pyrazin-2-yl]quinoline-8-carbonitrile]
7 | 4 nM | 2 nM | [2H]c1ccc2c(N3C[C@@H]4CN(c5ccc([C@@H]6CNCCO6)cc5)CCN4[C@@H](C)C3)ccc(C#N)c2n1 [Example 106, 5-[(4S,9aS)-4-methyl-8-[4-[(2R)-morpholin-2-yl]phenyl]-3,4,6,7,9,9a-hexahydro-1H-pyrazino[1,2-a]pyrazin-2-yl]-2-deuterio-quinoline-8-carbonitrile]
8 | 4 nM | 3 nM | [2H]c1ccc2c(N3C[C@@H]4CN(c5ccc([C@H]6CNCCO6)cc5)CCN4[C@@H](C)C3)ccc(C#N)c2n1 [Example 107, 5-[(4S,9aS)-4-methyl-8-[4-[(2S)-morpholin-2-yl]phenyl]-3,4,6,7,9,9a-hexahydro-1H-pyrazino[1,2-a]pyrazin-2-yl]-2-deuterio-quinoline-8-carbonitrile]
9 | 4 nM | 5 nM | [2H]c1ccc2c(N3C[C@@H]4CN(c5ccc(CCN6C[C@H](OC)[C@@H](N)C6)cn5)CCN4[C@H](C)C3)ccc(C#N)c2n1 [Example 109, 5-[(4R,9aR)-8-[5-[2-[(3S,4S)-3-amino-4-methoxy-pyrrolidin-1-yl]ethyl]-2-pyridyl]-4-methyl-3,4,6,7,9,9a-hexahydro-1H-pyrazino[1,2-a]pyrazin-2-yl]-2-deuterio-quinoline-8-carbonitrile]
10 | 5 nM | 6 nM | [2H]c1ccc2c(N3C[C@@H]4CN(c5ncc(N6C[C@@H]7C[C@H]6CN7)cc5C)CCN4[C@@H](C)C3)ccc(C#N)c2n1 [Example 111, 5-[(4S,9aR)-8-[5-[(1S,4S)-2,5-diazabicyclo[2.2.1]heptan-2-yl]-3-methyl-2-pyridyl]-4-methyl-3,4,6,7,9,9a-hexahydro-1H-pyrazino[1,2-a]pyrazin-2-yl]-2-deuterio-quinoline-8-carbonitrile]
11 | 142 nM | 6 nM | Cc1cc(N2CC3(CN(C)C3)C2)cnc1N1CCN2[C@@H](C1)CN(c1cc(=O)n(C)c3ncccc13)C[C@@H]2C [Example 113, 4-[(4S,9aR)-4-methyl-8-[3-methyl-5-(6-methyl-2,6-diazaspiro[3.3]heptan-2-yl)-2-pyridyl]-3,4,6,7,9,9a-hexahydro-1H-pyrazino[1,2-a]pyrazin-2-yl]-1-methyl-1,8-naphthyridin-2-one]
12 | 10 nM | 2 nM | [2H]c1ccc2c(N3C[C@@H]4CN(c5ncc(N6C[C@H]7NCCO[C@@H]7C6)cc5C)CCN4[C@@H](C)C3)ccc(C#N)c2n1 [Example 114, 5-[(4S,9aR)-8-[5-[(4aR,7aR)-3,4,4a,5,7,7a-hexahydro-2H-pyrrolo[3,4-b][1,4]oxazin-6-yl]-3-methyl-2-pyridyl]-4-methyl-3,4,6,7,9,9a-hexahydro-1H-pyrazino[1,2-a]pyrazin-2-yl]-2-deuterio-quinoline-8-carbonitrile]
13 | 17 nM | 10 nM | [2H]c1ccc2c(N3C[C@@H]4CN(c5ccc(N6C[C@@H](N)[C@H](OC)C6)nc5)CCN4[C@@H](C)C3)ccc(C#N)c2n1 [Example 115, 5-[(4S,9aR)-8-[6-[(3R,4R)-3-amino-4-methoxy-pyrrolidin-1-yl]-3-pyridyl]-4-methyl-3,4,6,7,9,9a-hexahydro-1H-pyrazino[1,2-a]pyrazin-2-yl]-2-deuterio-quinoline-8-carbonitrile]

Row | SMILES | IC50 (human TLR8) | IC50 (human TLR7)
14 | [2H]c1ccc2c(N3C[C@@H]4CN(c5ncc(N6CC7CC(C6)N7)cc5C)CCN4[C@@H](C)C3)ccc(C#N)c2n1 [Example 108, 5-[(4S,9aR)-8-[5-(3,6-diazabicyclo[3.1.1]heptan-3-yl)-3-methyl-2-pyridyl]-4-methyl-3,4,6,7,9,9a-hexahydro-1H-pyrazino[1,2-a]pyrazin-2-yl]-2-deuterio-quinoline-8-carbonitrile] | 6 nM | 3 nM
15 | [2H]c1ccc2c(N3C[C@@H]4CN(c5ccc(N6CC7CCC(C6)N7)nc5)CCN4[C@@H](C)C3)ccc(C#N)c2n1 [Example 112, 5-[(4S,9aR)-8-[6-(3,8-diazabicyclo[3.2.1]octan-3-yl)-3-pyridyl]-4-methyl-3,4,6,7,9,9a-hexahydro-1H-pyrazino[1,2-a]pyrazin-2-yl]-2-deuterio-quinoline-8-carbonitrile] | 10 nM | 4 nM
